Measurements taken from publication PMC9926234, “Iterative computational design and crystallographic screening identifies potent inhibitors targeting the Nsp3 macrodomain of SARS-CoV-2” (Proceedings of the National Academy of Sciences of the …, 2023).

Legend:
[1] = target: T1, SARS-CoV-2 NSP3 Mac1 (Severe acute respiratory syndrome coronavirus 2, UniProt P0DTD1); format: binding; set-up: contains a conserved macrodomain enzyme (Mac1); conditions: maximal thermal upshift vs DMSO control
Method: DSF and associated compound handling was performed as described ([12]), with 5 µM dye “Fluorescent Yellow” (Jacquard iDye Cat #JID1405) used in place of SYPRO Orange. Compounds were tested in triplicate, at seven concentrations in two-fold serial dilutions, at a top concentration of either 1,000 or 100 μM. To minimize experimental noise arising from plate location-based effects on Tma, all concentrations and replicates for each compound were tested within a single region of the microtiter plates, including a DMSO-only control from which ΔTmas were calculated for that compound. […] For each compound, to determine statistical significance of the dose responsive thermal shift, the Spearman’s coefficient was calculated between compound concentration and ΔTma.

[2] = target: T1, SARS-CoV-2 NSP3 Mac1; format: binding; conditions: true hit = binding in crystallographic soaking or the HTRF-based binding assay

| SMILES | DSF max dTma [1] [°C] | HIT* [2] |
| --- | --- | --- |
| Cc1oc(-c2cccs2)nc1Cc1nc(-c2cncnc2N)no1 [Z3789] | 0.56 |  |
| Cc1cc(-n2cncn2)ccc1C(=O)OCC1OCCc2ccccc21 (centres unmarked) [Z3896] | 0.63 |  |
| Cc1ccccc1CC(C)c1nc(-c2cc(N)ncn2)no1 (centres unmarked) [Z4066] | 0.98 |  |
| CC(C(=O)N1CCCC1c1nc(C(N)=O)no1)c1cccc(F)c1 (centres unmarked) [Z4135] | 0.15 |  |
| O=C(c1cccc(O)c1)N1CC=C(c2ccccc2)C1 [Z4141] | 0.71 |  |
| O=C(c1cccc(O)c1)N1CCC(Nc2ccccc2)C1 (centres unmarked) [Z4508] | 0.37 |  |
| Cc1nc2c(C(=O)OCc3ccnc(N(C)C)c3)ccnc2[nH]1 [Z4620] | 1.08 |  |
| COC(=O)CC1CN(c2ncnc3[nH]ccc23)c2ccccc21 (centres unmarked) [Z4911] | 0.79 |  |
| Nc1cc(-c2noc(CCn3cccn3)n2)ncn1 [Z5086] | 1.48 |  |
| CC1c2ccc(F)cc2CCN1C(=O)c1cccc(O)c1 (centres unmarked) [Z5167] | 0 |  |
| Cc1nc(Cc2noc(Cc3ccc4[nH]ncc4c3)n2)no1 [Z5262] | 0.45 |  |
| Fc1ccc(F)c(Sc2ncnc3[nH]ccc23)c1 [Z5289] | 1.24 |  |
| Cc1csc(=Nc2ccccc2)n1Cc1nnc2n1CCNC2=O [Z5356] | 0.51 |  |
| O=C(c1c(F)ccc(O)c1F)N1CCC(Oc2cccc(F)c2)C1 (centres unmarked) [Z5547] | 0.07 |  |
| CC(c1ccc(Cl)c(Cl)c1)S(=O)(=O)Cc1cn[nH]c1 (centres unmarked) [Z5728] | 0 |  |
| Nc1ncnc2c1ncn2CCCc1ccsc1 [Z5972] | 0.51 |  |
| Cc1ccc(-c2noc(C3CC(=O)N(c4cn[nH]c4)C3)n2)cc1 (centres unmarked) [Z6019] | 0.27 |  |
| CNc1cc(-c2noc(CN3CCCC3=O)n2)ncn1 [Z6028] | 0.33 |  |

| SMILES | DSF max dTma [1] [°C] | HIT* [2] |
| --- | --- | --- |
| N#Cc1cccc(-n2ccc(C(=O)OCc3cccnc3)n2)c1 [Z6395] | 0.18 |  |
| COc1ccc(-c2nnc(NC(=O)Cc3ncccc3F)s2)cc1 [Z6468] | 0.58 |  |
| Cc1nc(S(=O)(=O)NCc2ccc(-c3ccncc3)cc2)cn1C [Z7041] | 0.35 |  |
| Clc1cc2c(N3CCCC(c4nnc[nH]4)C3)ncnc2[nH]1 (centres unmarked) [Z7156] | 0.86 |  |
| Cc1cc(C)nc(CSc2nnc3c(=O)[nH]c4ccccc4n23)c1 [Z7570] | 0.36 |  |
| CN(Cc1nnc2c(=O)[nH]ccn12)c1nccc(C(F)(F)F)n1 [Z7665] | 0.55 |  |
| CN(Cc1nnc2c(=O)[nH]ccn12)c1cc(Cl)nc(C2CC2)n1 [Z7766] | 0.14 |  |
| CC1CCc2n[nH]cc2C1C(=O)N(C)OCc1ccccc1 (centres unmarked) [Z8074] | 0.54 |  |
| O=c1[nH]nc(C2CCCN(c3ncnc4[nH]c(Cl)cc34)C2)o1 (centres unmarked) [Z8387] | 1.01 |  |
| O=C(NC1c2cccc(O)c2CC1C(=O)O)c1ccc(Nc2cccnc2)cc1 (centres unmarked) [Z8539_0018] |  | Y |
| O=C1CSc2cc(C(=O)OC3c4ccccc4CC3F)ccc2N1 (centres unmarked) [Z8554] | 0.13 |  |
| O=C(Nc1cccnc1)Nc1nc2ccccc2c(=O)[nH]1 [Z8593] | 0 |  |
| O=C(NCc1nc2ccccc2c(=O)[nH]1)Nc1cccnc1 [Z8598] | 0.22 |  |
| O=C(Nc1cccnc1)Nc1ccc2ccccc2n1 [Z8614] | 0.06 |  |
| Cc1n[nH]c2ncc(CN3CC(C)Oc4c(F)cccc43)cc12 (centres unmarked) [Z8637] | 0.16 |  |
| CS(=O)(=O)C1CCCCN(c2ncnc3[nH]c4ccccc4c23)C1 (centres unmarked) [Z8648] | 0.24 |  |
| Clc1cc2c(N3CCCC(c4cccnc4)C3)ncnc2[nH]1 (centres unmarked) [Z8680] | 0.25 |  |
